{"source": "patent US11666050B2", "about": "“Enhancing the antimicrobial activity of biocides with polymers” (BASF SE, priority 2012, dated 2023)", "type_in_all_cases": "cell-based", "key": {"[1]": {"system": "Pseudomonas aeruginosa ATCC 15442", "assay": "Bactericidal activity, method EN1040 (Example 1, Table 1)", "details": "biocide alone; for log redn. after contact time 1 hr: contact time 1 hr; for log redn. after contact time 3 hrs: contact time 3 hrs; for log redn. after contact time 6 hrs: contact time 6 hrs; for log redn. after contact time 24 hrs: contact time 24 hrs", "description": "(§1) Lines in grey shading indicate control sample (no PEI or no biocide added): […]"}, "[2]": {"system": "Staphylococcus aureus ATCC 6538", "assay": "Bactericidal activity, method EN1040 (Example 1, Table 2)", "details": "biocide alone; for log redn. after contact time 1 hr: contact time 1 hr; for log redn. after contact time 3 hrs: contact time 3 hrs; for log redn. after contact time 6 hrs: contact time 6 hrs; for log redn. after contact time 24 hrs: contact time 24 hrs", "description": "as §1"}, "[3]": {"system": "Staphylococcus aureus ATCC 6538", "assay": "Bactericidal activity, method EN1276 (Example 1, Table 3)", "details": "biocide 250 ppm a.i., no PEI (control), S. aureus ATCC 6538", "description": "as §1"}}, "data": [{"smiles": "O=[N+]([O-])C(Br)(CO)CO", "note": "[Bronopol, 2-Bromo-2-nitropropane-1,3-diol]", "values": [{"measurement": "log redn. after contact time 1 hr", "setting": "[1]; 0.1% a.i.", "result": "<1", "unit": "log"}, {"measurement": "log redn. after contact time 3 hrs", "setting": "[1]; 0.1% a.i.", "result": "<1", "unit": "log"}, {"measurement": "log redn. after contact time 6 hrs", "setting": "[1]; 0.1% a.i.", "result": 4.2, "unit": "log"}, {"measurement": "log redn. after contact time 24 hrs", "setting": "[1]; 0.1% a.i.", "result": 2.4, "unit": "log"}, {"measurement": "log redn. after contact time 1 hr", "setting": "[2]; 0.1% a.i.", "result": "<1", "unit": "log"}, {"measurement": "log redn. after contact time 3 hrs", "setting": "[2]; 0.1% a.i.", "result": "<1", "unit": "log"}, {"measurement": "log redn. after contact time 6 hrs", "setting": "[2]; 0.1% a.i.", "result": "<1", "unit": "log"}, {"measurement": "log redn. after contact time 24 hrs", "setting": "[2]; 0.1% a.i.", "result": 2.4, "unit": "log"}]}, {"smiles": "Oc1cc(Cl)ccc1Oc1ccc(Cl)cc1", "note": "[Tinosan® HP 100, Hydroxydichlorodiphenyl Ether]", "values": [{"measurement": "log redn. after Contact time 5 min", "setting": "[3]", "result": 4.9, "unit": "log redn."}]}, {"smiles": "OCCOc1ccccc1", "note": "[phenoxyethanol, 2-Phenoxyethanol]", "values": [{"measurement": "log redn. after contact time 1 hr", "setting": "[1]; 1% a.i.", "result": "<1", "unit": "log"}, {"measurement": "log redn. after contact time 3 hrs", "setting": "[1]; 1% a.i.", "result": 1.3, "unit": "log"}, {"measurement": "log redn. after contact time 6 hrs", "setting": "[1]; 1% a.i.", "result": 2.8, "unit": "log"}, {"measurement": "log redn. after contact time 24 hrs", "setting": "[1]; 1% a.i.", "result": ">6", "unit": "log"}, {"measurement": "log redn. after contact time 1 hr", "setting": "[2]; 1% a.i.", "result": "<1", "unit": "log"}, {"measurement": "log redn. after contact time 3 hrs", "setting": "[2]; 1% a.i.", "result": "<1", "unit": "log"}, {"measurement": "log redn. after contact time 6 hrs", "setting": "[2]; 1% a.i.", "result": "<1", "unit": "log"}, {"measurement": "log redn. after contact time 24 hrs", "setting": "[2]; 1% a.i.", "result": 1.1, "unit": "log"}]}]}
